In patent US20090030049A1, “MEDICAMENT FOR GENITAL HERPES” (ASTELLAS PHARMA INC., priority 2005, published 2009):
“And” between values parts separate entries of the source, which are not always exact repeats. Identical values can stand only once.

System: HSV-2 strain G
Assay: Therapeutic activity upon guinea pig HSV-2 genital herpes model (vaginal lesion score)
Format: in vivo
Conditions: oral, twice a day, dose inhibiting 50% of average vaginal lesion score of placebo group at 9 days after infection, Hartley female guinea pig; for ED50: Human alphaherpesvirus 2, in Cavia porcellus, started after development of vaginal lesions (day 4 to 8 after infection), read-out: Lesion inhibitory activity (ED50; mg/kg) (4 to 8 days of administration after infection); for Comparative test (administration before the development of lesions) (ED50; mg/kg) (0 to 4 days of administration after infection): started 3 hours after HSV-2 infection until 4 days after infection
Description: In vivo activity of the pharmaceutical composition of the present invention was tested using an HSV-2 infected guinea pig vagina genital herpes model in reference to the method of L. Stanberry et al. (Journal of Infectious Disease, 1982, 146, 397-404). An absorbent cotton swab was impregnated with an HSV-2 virus suspension (HSV-2 strain G 1.25×10^5 PFU/ml) and inserted into the vagina of a Hartley female guinea pig (4 weeks of age) under diethyl ether anesthesia, thereby infecting it with HSV-2. Vagina lesions and general conditions caused by the HSV-2 infection were scored based on the following 6 steps and evaluated every day from the infected day (0 day) to 9 days after the infection.
Score 1: formation of approximately 1 or 2 small blisters which can be observed with the naked eye
Score 2: formation of blisters in 10 to 50% per vaginal visible area
Score 3: formation of blisters in 50 to 100% per vaginal visible area
Score 4: formation of ulcers in 10 to 50% per vaginal visible area
Score 5: formation of ulcers in 50 to 100% per vaginal visible area
Score 6: paralysis of hind legs or death
Only guinea pigs in which the vaginal lesion score was judged to be 1 or 2 and development of lesions therefore was found were selected after the development of vaginal lesions by HSV-2 infection, namely 4 days after the infection, their grouping was carried out in such a manner that average values of the scores became even, and then administration of each compound to be tested was started. Each compound to be tested was made into a methyl cellulose suspension and orally administered twice a day for 5 days of from the 4th day to 8th day after the infection. Additionally, in order to compare degrees of the therapeutic effect due to difference in the administration starting period, a comparative test was simultaneously carried out in which the administration was started before the development of vaginal lesions (3 hours after the HSV-2 infection) and the administration was carried out in the same manner until 4 days after the infection. Each test was carried out using 10 animals per group of the guinea pigs and using VCV as the comparative compound.
Regarding the average vaginal lesion score of 9 days after the HSV-2 infection, the dose of each compound to be tested which inhibits 50% of the score of the placebo administration group (ED50 value; mg/kg, twice a day) was calculated, with the results shown in the following table.

Cc1ccc(N(CC(=O)Nc2ccc(-c3cocn3)cc2)C(=O)C2CCS(=O)(=O)CC2)cc1 [Preparation 2, N-(4-methylphenyl)-N-(2-{[4-(1,3-oxazol-4-yl)phenyl]amino}-2-oxoethyl)tetrahydro-2H-thiopyran-4-carboxamide 1,1-dioxide]
ED50: 3.1 mg/kg | Comparative test (administration before the development of lesions) (ED50; mg/kg) (0 to 4 days of administration after infection): 1.3 mg/kg

Cc1cccc(C)c1N(CC(=O)Nc1ccc(-c2ncon2)cc1)C(=O)C1CCS(=O)(=O)CC1 [Preparation 27, N-(2,6-dimethylphenyl)-N-(2-{[4-(1,2,4-oxadiazol-3-yl)phenyl]amino}-2-oxoethyl)tetrahydro-2H-thiopyran-4-carboxamide 1,1-dioxide]
ED50: 2.5 mg/kg | Comparative test (administration before the development of lesions) (ED50; mg/kg) (0 to 4 days of administration after infection): 1.2 mg/kg

CC(C)[C@H](N)C(=O)OCCOCn1cnc2c(=O)[nH]c(N)nc21 [VCV, valacyclovir, reference compound]
ED50: ≥ 300 mg/kg | Comparative test (administration before the development of lesions) (ED50; mg/kg) (0 to 4 days of administration after infection): 117 mg/kg and 50 mg/kg
